The text below walks through data of patent US6762170B1, “2-(purin-9-yl)-tetrahydrofuran-3,4-diol derivatives” (SmithKlineBeecham Corporation, priority 1998, dated 2004).

What all share (type): cell-based
For one assay, the target named is T1, Adenosine 2a receptor (Homo sapiens, UniProt P29274).
T1 construct: expressed in transfected cells; host or cells: Chinese hamster ovary (CHO) cells, co-transfected with a CRE-SPAP reporter
In words: Agonist activity against adenosine 2a receptor subtype (CHO cells, cAMP response element/SPAP reporter). The following applies: EC50 ratio to NECA; transfected CHO cells, basal cAMP reflected by SPAP. As to the method:
(§1) (1) Agonist Activity Against Adenosine 2a, Adenosine 1 and Adenosine 3 Receptor Subtypes.
(§2) Agonist selectivity of compounds against other human adenosine receptors is determined using Chinese hamster ovary (CHO) cells transfected with the gene for the relevant human adenosine receptor following a method based on that of Castanon and Spevak, 1994. The CHO cells are also transfected with cyclic AMP response elements promoting the gene for secreted placental alkaline phosphatase (SPAP) (Wood, 1995). The effect of test compounds may be determined by their effects on basal levels of cAMP (A2a) or on forskolin-enhanced cAMP (A1 and A3) as reflected by changes in levels of SPAP. EC50 values for compounds may then be determined as a ratio to that of the non-selective agonist N-ethyl carboxamide adenosine (NECA).
(§3) Values given in the Table are EC50 values as a ratio of that of NECA.

The next assay deals with T2, Adenosine 3 receptor (Homo sapiens, UniProt P0DMS8).
T2 construct: expressed in transfected cells; host or cells: Chinese hamster ovary (CHO) cells, co-transfected with a CRE-SPAP reporter
T2 sequence (P0DMS8 1-318): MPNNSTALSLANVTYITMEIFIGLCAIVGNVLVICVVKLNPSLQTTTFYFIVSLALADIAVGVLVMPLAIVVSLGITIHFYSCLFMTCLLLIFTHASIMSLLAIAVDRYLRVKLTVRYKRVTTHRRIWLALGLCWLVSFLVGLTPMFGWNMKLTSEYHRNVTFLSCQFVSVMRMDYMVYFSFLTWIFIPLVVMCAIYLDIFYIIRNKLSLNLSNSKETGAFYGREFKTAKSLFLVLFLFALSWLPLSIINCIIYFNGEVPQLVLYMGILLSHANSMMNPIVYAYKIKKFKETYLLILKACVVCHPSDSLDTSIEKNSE
In words: Agonist activity against adenosine 3 receptor subtype (CHO cells, forskolin-enhanced cAMP, SPAP reporter). The conditions noted are these: EC50 ratio to NECA; transfected CHO cells, forskolin-enhanced cAMP reflected by SPAP. How it is done: as §1, §2, §3

Another assay deals with T3, Adenosine 1 receptor (Homo sapiens, UniProt P30542).
T3 construct: expressed in transfected cells; host or cells: Chinese hamster ovary (CHO) cells, co-transfected with a CRE-SPAP reporter
T3 sequence (P30542 1-326): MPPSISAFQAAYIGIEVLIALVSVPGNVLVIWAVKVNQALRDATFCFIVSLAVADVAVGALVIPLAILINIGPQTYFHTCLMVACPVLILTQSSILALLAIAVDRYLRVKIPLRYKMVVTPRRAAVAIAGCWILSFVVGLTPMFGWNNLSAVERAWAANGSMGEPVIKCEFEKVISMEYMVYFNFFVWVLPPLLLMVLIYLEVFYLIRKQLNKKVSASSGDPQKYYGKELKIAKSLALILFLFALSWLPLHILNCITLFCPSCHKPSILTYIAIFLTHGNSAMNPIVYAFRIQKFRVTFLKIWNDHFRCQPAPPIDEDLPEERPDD
In words: Agonist activity against adenosine 1 receptor subtype (CHO cells, forskolin-enhanced cAMP, SPAP reporter). The conditions noted are these: EC50 ratio to NECA; transfected CHO cells, forskolin-enhanced cAMP reflected by SPAP. How it is done: as §1, §2, §3

T1 sequence (P29274 whole entry): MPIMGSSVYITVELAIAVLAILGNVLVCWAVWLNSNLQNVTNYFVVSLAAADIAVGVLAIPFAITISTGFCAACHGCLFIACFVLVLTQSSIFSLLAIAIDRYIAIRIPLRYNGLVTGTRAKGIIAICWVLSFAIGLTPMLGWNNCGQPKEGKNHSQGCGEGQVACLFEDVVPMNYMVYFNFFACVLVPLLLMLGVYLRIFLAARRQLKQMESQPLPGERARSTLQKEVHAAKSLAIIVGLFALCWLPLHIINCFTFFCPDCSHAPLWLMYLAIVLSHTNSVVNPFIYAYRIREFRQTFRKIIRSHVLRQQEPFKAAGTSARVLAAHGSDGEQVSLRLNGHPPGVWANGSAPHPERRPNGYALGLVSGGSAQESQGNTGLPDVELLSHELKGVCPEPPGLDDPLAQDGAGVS

In the case of `CCc1cc([C@H]2O[C@@H](n3cnc4c(NCC(c5ccccc5)c5ccccc5)nc(N[C@H]5CC[C@H](N)CC5)nc43)[C@H](O)[C@@H]2O)on1.O=CO.O=CO` (relative stereo) [Example 19, (2R,3R,4S,5S)-2-[2-(trans-4-Amino-cyclohexylamino)-6-(2,2-diphenyl-ethylamino)-purin-9-yl]-5-(3-ethyl-isoxazol-5-yl)-tetrahydro-furan-3,4-diol diformate], the “A2a (EC50 values as a ratio of that of NECA)” value on Adenosine 2a receptor came to 2.41. Further, the “A3 (EC50 values as a ratio of that of NECA)” value on Adenosine 3 receptor is reported as >295. At Adenosine 1 receptor, the “A1 (EC50 values as a ratio of that of NECA)” value came out at 670.2.

For the compound `CCc1cc([C@H]2O[C@@H](n3cnc4c(NCC(c5ccccc5)c5ccccc5)nc(NCCN5CCCCC5)nc43)[C@H](O)[C@@H]2O)on1.O=CO.O=CO` [Example 1, (2R,3R,4S,S)-2-[6-(2,2-Diphenyl-ethylamino)-2-(2-piperidin-1-yl-ethylamino)-purin-9-yl]-5-(3-ethyl-isoxazol-5-yl)-tetrahydro-furan-3,4-diol diformate], the “A2a (EC50 values as a ratio of that of NECA)” value at Adenosine 2a receptor is listed as 0.52. Moreover, the “A3 (EC50 values as a ratio of that of NECA)” value at Adenosine 3 receptor is >436. For the same compound, the “A1 (EC50 values as a ratio of that of NECA)” value at Adenosine 1 receptor turned out to be 288.5.

Consider `CCc1cc(C2OC(n3cnc4c(NCC(c5ccccc5)c5ccccc5)nc(NCCN5CCOCC5)nc43)C(O)C2O)on1` [Example 2, (2R,3R,4S,5S)-2-[6-(2,2-Diphenyl-ethylamino)-2-(2-morpholin-4-yl-ethylamino)-purin-9-yl]-5-(3-ethyl-isoxazol-5-yl)-tetrahydro-furan-3,4-diol diformate.], for which, on Adenosine 2a receptor, the “A2a (EC50 values as a ratio of that of NECA)” value is 0.43. Moreover, the “A3 (EC50 values as a ratio of that of NECA)” value on Adenosine 3 receptor was >545. Moreover, the “A1 (EC50 values as a ratio of that of NECA)” value at Adenosine 1 receptor is reported as 88.9.

Consider `CCc1cc(C2OC(n3cnc4c(NCCc5ccccc5)nc(NCCN5CCCCC5)nc43)C(O)C2O)on1.O=CO.O=CO` [Example 3, (2R,3R,4S,5S)-2-(3-Ethyl-isoxazol-5-yl)-5-[6-phenethylamino-2-(2-piperidin-1-yl-ethylamino)-purin-9-yl]-tetrahydro-furan-3,4-diol diformate], for which the “A2a (EC50 values as a ratio of that of NECA)” value on Adenosine 2a receptor came to 1.32. Besides, at Adenosine 3 receptor, the “A3 (EC50 values as a ratio of that of NECA)” value is on record as >375. Moreover, the “A1 (EC50 values as a ratio of that of NECA)” value on Adenosine 1 receptor was 231.

Turning to `CCc1cc([C@H]2O[C@@H](n3cnc4c(NCC(c5ccccc5)c5ccccc5)nc(NCCO)nc43)[C@H](O)[C@@H]2O)on1.O=CO` [Example 4, (2R,3R,4S,5S)-2-[6-(2,2-Diphenyl-ethylamino)-2-(2-hydroxy-ethylamino)-purin-9-yl]-5-(3-ethyl-isoxazol-5-yl)-tetrahydro-furan-3,4-diol formate], the “A2a (EC50 values as a ratio of that of NECA)” value on Adenosine 2a receptor is 0.92. In addition, the “A3 (EC50 values as a ratio of that of NECA)” value on Adenosine 3 receptor was >267. Also, the “A1 (EC50 values as a ratio of that of NECA)” value at Adenosine 1 receptor is given as 109.3.

As to `CCc1cc([C@H]2O[C@@H](n3cnc4c(NC(CC)CC)nc(NCCc5cn(C)cn5)nc43)[C@H](O)[C@@H]2O)on1.O=CO.O=CO` [Example 5, (2S,3S,4R,5R)-2-(3-Ethyl-isoxazol-5-yl)-5-{6-(1-ethyl-propylamino)-2-[2-(1-methyl-1H-imidazol-4-yl)-ethylamino]-purin-9-yl}-tetrahydro-furan-3,4-diol diformate], the “A2a (EC50 values as a ratio of that of NECA)” value at Adenosine 2a receptor came to 0.11. Besides, the “A3 (EC50 values as a ratio of that of NECA)” value on Adenosine 3 receptor is recorded as >237. Further, the “A1 (EC50 values as a ratio of that of NECA)” value on Adenosine 1 receptor turned out to be 30.1.

Consider `CCc1cc([C@H]2O[C@@H](n3cnc4c(NC(CC)CC)nc(NCCN5CCCCC5)nc43)[C@H](O)[C@@H]2O)on1.O=CO.O=CO` [Example 6, (2S,3S,4R,5R)-2-(3-Ethyl-isoxazol-5-yl)-5-[6-(1-ethyl-propylamino)-2-(2-piperidin-1-yl-ethylamino)-purin-9-yl]-tetrahydro-furan-3,4-diol diformate], for which the “A2a (EC50 values as a ratio of that of NECA)” value at Adenosine 2a receptor amounted to 0.49. Also, on Adenosine 3 receptor, the “A3 (EC50 values as a ratio of that of NECA)” value is >393. At Adenosine 1 receptor, the “A1 (EC50 values as a ratio of that of NECA)” value amounted to 66.4.

Consider `CCc1cc([C@H]2O[C@@H](n3cnc4c(NCCC(C)(C)C)nc(NCCc5cn(C)cn5)nc43)[C@H](O)[C@@H]2O)on1.O=CO.O=CO` [Example 7, (2R,3R,4S,5S)-2-{6-(3,3-Dimethyl-butylamino)-2-[2-(1-methyl-1H-imidazol-4-yl)-ethylamino]-purin-9-yl}-5-(3-ethyl-isoxazol-5-yl)-tetrahydro-furan-3,4-diol diformate], for which the “A2a (EC50 values as a ratio of that of NECA)” value at Adenosine 2a receptor turned out to be 0.35. The “A3 (EC50 values as a ratio of that of NECA)” value on Adenosine 3 receptor is given as >312. For the same compound, at Adenosine 1 receptor, the “A1 (EC50 values as a ratio of that of NECA)” value is “>=309.4”.

Turning to `CCc1cc(C2OC(n3cnc4c(NC5CCCC5)nc(NCCN5CCCCC5)nc43)C(O)C2O)on1` [Example 8, (2S,3S,4R,5R)-2-(3-Ethyl-isoxazol-5-yl)-5-[6-(cyclopentylamino)-2-(2-piperidin-1-yl)-ethylamino)-purin-9-yl]-tetrahydro-furan-3,4-diol diformate], the “A2a (EC50 values as a ratio of that of NECA)” value on Adenosine 2a receptor worked out at 0.67. For the same compound, on Adenosine 3 receptor, the “A3 (EC50 values as a ratio of that of NECA)” value is on record as >310. In addition, the “A1 (EC50 values as a ratio of that of NECA)” value on Adenosine 1 receptor was determined as 49.1.

As to `CCc1cc(C2OC(n3cnc4c(NC5CCSCC5)nc(NCCNC(=N)N)nc43)C(O)C2O)on1` (stereo not drawn) [Example 9, N-{2-[9-[5S-(3-Ethyl-isoxazol-5-yl)-3R,4S-dihydroxy-tetrahydro-furan-2R-yl]-6-tetrahydro-thiopyran-4-ylamino)-9H-purin-2-ylamino]-ethyl}-guanidine diformate], the “A2a (EC50 values as a ratio of that of NECA)” value at Adenosine 2a receptor is given as 2.05. The “A3 (EC50 values as a ratio of that of NECA)” value on Adenosine 3 receptor was >323. Further, the “A1 (EC50 values as a ratio of that of NECA)” value at Adenosine 1 receptor is on record as 132.3.

In the case of `CCc1cc(C2OC(n3cnc4c(Nc5ccc(O)c(F)c5)nc(NCCN5CCCCC5)nc43)C(O)C2O)on1.O=CO.O=CO` [Example 10, (2S,3S,4R,5R)-2-(3-Ethyl-isoxazol-5-yl)-5-[6-(3-fluoro-4-hydroxy-phenylamino)-2-(2-piperidin-1-yl-ethylamino)-purin-9-yl]-tetrahydro-furan-3,4-diol diformate], the “A2a (EC50 values as a ratio of that of NECA)” value on Adenosine 2a receptor is given as 2.07. Further, the “A3 (EC50 values as a ratio of that of NECA)” value at Adenosine 3 receptor is reported as >180. The “A1 (EC50 values as a ratio of that of NECA)” value at Adenosine 1 receptor is reported as 59.38.

Regarding `CCc1cc(C2OC(n3cnc4c(NCCS(=O)(=O)NC)nc(NCCN5CCCCC5)nc43)C(O)C2O)on1` (stereo not drawn) [Example 11, 2-[9-[5S-(3-Ethyl-isoxazol-5-yl)-3R,4S-dihydroxy-tetrahydro-furan-2R-yl]-2-(2-piperidin-1-yl-ethylamino)-9H-purin-6-ylamino]-ethanesulfonic acid methylamide diformate], at Adenosine 2a receptor, the “A2a (EC50 values as a ratio of that of NECA)” value came to 3.66. In addition, at Adenosine 3 receptor, the “A3 (EC50 values as a ratio of that of NECA)” value is >303. Also, the “A1 (EC50 values as a ratio of that of NECA)” value on Adenosine 1 receptor came out at 32.9.

As to `CCc1cc([C@H]2O[C@@H](n3cnc4c(NC5CCSCC5)nc(NCCN5CCCCC5)nc43)[C@H](O)[C@@H]2O)on1.O=CO.O=CO` [Example 12, (2S,3S,4R,5R)-2-(3-Ethyl-isoxazol-5-yl)-5-[2-(2-piperidin-1-yl-ethylamino)-6-(tetrahydro-thiopyran-4-ylamino)-purin-9-yl]-tetrahydro-furan-3,4-diol diformate], the “A2a (EC50 values as a ratio of that of NECA)” value at Adenosine 2a receptor was found to be 3.39. In addition, the “A3 (EC50 values as a ratio of that of NECA)” value at Adenosine 3 receptor was >410. For the same compound, the “A1 (EC50 values as a ratio of that of NECA)” value at Adenosine 1 receptor stood at 260.3.
